Like-named read-outs stand apart in the source and are kept apart here.
Molecular target: T1, EP3 receptor (Homo sapiens, UniProt P43115)
T1 construct: purchased Millipore HTS092M
T1 sequence (P43115 1-390): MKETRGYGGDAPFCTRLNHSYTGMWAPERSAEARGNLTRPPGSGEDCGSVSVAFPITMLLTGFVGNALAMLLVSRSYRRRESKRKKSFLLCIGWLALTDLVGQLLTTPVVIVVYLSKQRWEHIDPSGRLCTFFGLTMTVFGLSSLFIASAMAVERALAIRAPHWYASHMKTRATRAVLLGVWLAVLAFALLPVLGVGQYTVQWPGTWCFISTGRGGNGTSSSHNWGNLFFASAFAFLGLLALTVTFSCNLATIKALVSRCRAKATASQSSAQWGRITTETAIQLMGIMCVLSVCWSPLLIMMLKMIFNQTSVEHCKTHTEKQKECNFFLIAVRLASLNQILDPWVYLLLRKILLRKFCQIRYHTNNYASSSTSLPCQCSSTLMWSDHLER
Test: [3H]-PGE2 binding assay (EP3 competition binding)
Protocol: EP3 competition binding was determined using the following materials and experimental conditions:
Beads=Perkin Elmer RPNQ0001
EP3 membrane=Millipore HTS092M
Membrane concentration=2 μg/well
Beads concentration=0.25 mg/well
[3H]-PGE2=2 nM; DMSO—0.1%
Binding buffer=50 mM Tris, 10 mM MgCl2, 1 mM • EDTA, PH 7.4.
The binding buffer was removed from refrigeration (@ 4° C.) and allowed to warm to room temperature. Test compound (@ stock concentration of […] in DMSO) was serial dilutes (1:3) with 100% DMSO using Echo plate. Diluted test compound (30 nL) was dispensed to the 384-well assay plate (using Echo 550 Labcyte System). To each well was then added assay buffer (5 μl) and each well was spun. Beads were weighed out, dissolved in assay buffer to a concentration of 0.25 mg/15 μl. Original membrane was diluted with assay buffer to a concentration of 2 μg/5 μl. […] To each test well were then added diluted [3H]-PGE2 (5 μl), diluted membrane (5 μl), and dissolved beads (15 μl). The plate was equilibrated at room temperature on a plate shaker for 2 hours and then read with a TOPCOUNT scintillation plate reader. Results were analyzed using a Prism program with non-linear regression, one-site fit for Ki.

Structure (SMILES)	Ki (read-out: [3H]-PGE2 Binding Ki) [nM]	Ki ([3H]-PGE2 Binding Ki) [nM]
CCn1ncc2c(F)cc(-c3ccc(C(CC4CCNC4=O)C(C)C)c(=O)[nH]3)cc21 (stereo not drawn) [compound 148, anti-6-(1-ethyl-4-fluoro-1H-indazol-6-yl)-3-(3-methyl-1-(2-oxopyrrolidin-3-yl)butan-2-yl)pyridin-2(1H)-one]	787	
CCn1ncc2c(F)cc(-c3ccc(C(CC4CCC(=O)N4)C(C)C)c(=O)[nH]3)cc21 (stereo not drawn) [compound 151, 6-(1-ethyl-4-fluoro-1H-indazol-6-yl)-3-(3-methyl-1-(5-oxopyrrolidin-2-yl)butan-2-yl)pyridin-2(1H)-one]	11	
CCn1ncc2c(F)cc(-c3ccc(C4CCC5(CC4)CCN(S(=O)(=O)C(C)C)CC5)c(=O)[nH]3)cc21 [compound 204, 6-(1-ethyl-4-fluoroindazol-6-yl)-3-[3-(propane-2-sulfonyl)-3-azaspiro[5.5]undecan-9-yl]-1H-pyridin-2-one]	12	
CCn1ncc2c(F)cc(-c3ccc(C4CC5CN(S(=O)(=O)C(C)C)CC5C4)c(=O)[nH]3)cc21 (stereo not drawn) [compound 205, 6-(1-ethyl-4-fluoro-1H-indazol-6-yl)-3-(2-(isopropylsulfonyl)-octahydrocyclopenta[c]pyrrol-5-yl)pyridin-2(1H)-one]	51	
CCn1ncc2c(F)cc(-c3ccc(C4CC5CCC(C4)N5S(=O)(=O)C(C)C)c(=O)[nH]3)cc21 (stereo not drawn) [compound 206, 6-(1-ethyl-4-fluoro-1H-indazol-6-yl)-3-(8-(isopropylsulfonyl)-8-azabicyclo[3.2.1]octan-3-yl)pyridin-2(1H)-one]		25
CCn1ncc2c(F)cc(-c3ccc(C4CCC5(CCNC5=O)CC4)c(=O)[nH]3)cc21 (stereo not drawn) [compound 207, 8-(6-(1-ethyl-4-fluoro-1H-indazol-6-yl)-2-oxo-1,2-dihydropyridin-3-yl)-2-azaspiro[4.5]decan-1-one]	15	
CCn1ncc2c(F)cc(-c3ccc(C4CC5CCC(C4)N5C(=O)NC(C)C)c(=O)[nH]3)cc21 (stereo not drawn) [compound 208, 3-(6-(1-ethyl-4-fluoro-1H-indazol-6-yl)-2-oxo-1,2-dihydropyridin-3-yl)-N-isopropyl-8-azabicyclo[3.2.1]octane-8-carboxamide]		158
CCn1ncc2c(F)cc(-c3ccc(C4CC5CN(C(=O)NC(C)C)CC5C4)c(=O)[nH]3)cc21 (stereo not drawn) [compound 209, 5-(6-(1-ethyl-4-fluoro-1H-indazol-6-yl)-2-oxo-1,2-dihydropyridin-3-yl)-N-isopropyl-hexahydrocyclopenta[c]pyrrole-2(1H)-carboxamide]	20	
CCn1ncc2c(F)cc(-c3ccc(C4CC5COC(=O)N5C4)c(=O)[nH]3)cc21 (stereo not drawn) [compound 215, 6-(6-(1-ethyl-4-fluoro-1H-indazol-6-yl)-2-oxo-1,2-dihydropyridin-3-yl)tetrahydro-1H,3H-pyrrolo[1,2-c]oxazol-3-one]	165	
CCn1ncc2c(F)cc(-c3ccc(C4(C(C)C)OCCNC4=O)c(=O)[nH]3)cc21 (stereo not drawn) [compound 248, 2-(6-(1-ethyl-4-fluoro-1H-indazol-6-yl)-2-oxo-1,2-dihydropyridin-3-yl)-2-isopropylmorpholin-3-one]	10	
CCC(CC)(Cc1nnc[nH]1)c1ccc(-c2ccc3cc(F)cc(F)c3c2)[nH]c1=O [compound 279, 3-(3-((4H-1,2,4-triazol-3-yl)methyl)pentan-3-yl)-6-(6,8-difluoronaphthalen-2-yl)pyridin-2(3H)-one]	60	
CC(C)C(/C=C1/OC(=O)NC1=O)c1ccc(-c2ccc3cccc(C#N)c3c2)[nH]c1=O (stereo not drawn) [compound 310, (E)-7-(5-(1-(2,4-dioxooxazolidin-5-ylidene)-3-methylbutan-2-yl)-6-oxo-1,6-dihydropyridin-2-yl)-1-naphthonitrile]	71	
